# Legend:
# Type in all cases: in vivo
# [1] = system: bird's eye speedwell (Veronica persica Poir.), Vp; experiment: Test Example 3: herbicidal effect on upland weeds before emergence; conditions: dosage 5 kg/ha
# Method in brief: (§1)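 Pre-emergence spray of liquid prep, compound at set concentration; read at 14 d post-treatment; weed-kill rate calculated, effect graded.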
# [2] = system: forxtail grass (Alopecurus aequalis var. amurensis Ohwi), Am; experiment: as above; conditions: foxtail grass, dosage 5 kg/ha
# Method in brief: as §1
# [3] = system: cleavers (Galium aparine L.), Ga; experiment: as above; conditions: dosage 5 kg/ha
# Method in brief: as §1
# [4] = system: velvetleaf (Abutilon theophtasti L.), At; experiment: as above; conditions: dosage 5 kg/ha
# Method in brief: as §1
# [5] = system: barnyard grass (Echinochloa crus-galli Beauv.), Ec; experiment: as above; conditions: dosage 5 kg/ha
# Method in brief: as §1
# [6] = system: cocklebur (Xanthium strumarium L.), Xs; experiment: as above; conditions: dosage 5 kg/ha
# Method in brief: as §1
# [7] = system: wheat (Wh); experiment: Test Example 3: phytotoxicity to upland crop plants, treatment before emergence; conditions: dosage 5 kg/ha
# Method in brief: (§2)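 Compound formulated as a liquid agent at a prescribed concentration is sprayed before crop emergence. After fourteen days, damage to soybean and wheat is examined and rated by a judgment criterion.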
# [8] = system: soybean plant (So); experiment: as above; conditions: dosage 5 kg/ha
# Method in brief: as §2
# [9] = system: soybean plant; experiment: Test Example 4: phytotoxicity to upland crop plants, treatment after emergence; conditions: dosage 5 kg/ha, sprayed after emergence, judged 14 days after treatment
# Method in brief: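 Post-emergence foliar spray at a prescribed concentration, applied once the sown weeds and soybean reached defined leaf stages in soil vats; herbicidal effect and soybean injury scored after 14 days.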
# [10] = system: wheat; experiment: as above; conditions: dosage 5 kg/ha, sprayed after emergence, judged 14 days after treatment
# Method in brief: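 Weeds, soybean and wheat were sown in soil-filled vats, covered with soil and grown to set leaf stages before a post-emergence spray of an agent containing the compound at a prescribed concentration. Weed-killing rate and crop phytotoxicity were assessed 14 days after treatment.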
# [11] = system: bulrush (Scirpus juncoides Roxb.); experiment: Test Example 1: herbicidal effect on paddy field weeds before emergence; conditions: Dosage 5 kg/ha
# Method in brief: (§3)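 Seeds of both weeds, still ungerminated, in soil pots held under paddy conditions received a set dose of test solution as soil treatment. After twenty-one days, control relative to untreated pots was calculated and rated on a scoring scale.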
# [12] = system: barnyard grass (Echinochloa crus-galli Beauv.); experiment: as above; conditions: Dosage 5 kg/ha
# Method in brief: as §3
# [13] = system: bird's eye speedwell (Veronica persica Poir.), Vp; experiment: Test Example 4: herbicidal effect on upland weeds after emergence; conditions: dosage 5 kg/ha; sprayed after emergence; judged 14 days after treatment
# Method in brief: (§4)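 Scores of weed-killing rate, with crop phytotoxicity, come from inspection 14 days after plants in soil vats, grown to specified leaf stages, are sprayed with a formulation holding the compound at a prescribed concentration.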
# [14] = system: forxtail grass (Alopecurus aequalis var. amurensis Ohwi), Am; experiment: as above; conditions: dosage 5 kg/ha; sprayed after emergence; judged 14 days after treatment
# Method in brief: as §4
# [15] = system: cleavers (Galium aparine L.), Ga; experiment: as above; conditions: dosage 5 kg/ha; sprayed after emergence; judged 14 days after treatment
# Method in brief: as §4
# [16] = system: velvetleaf (Abutilon theophtasti L.), At; experiment: as above; conditions: dosage 5 kg/ha; sprayed after emergence; judged 14 days after treatment
# Method in brief: as §4
# [17] = system: barnyard grass (Echinochloa crus-galli Beauv.), Ec; experiment: as above; conditions: dosage 5 kg/ha; sprayed after emergence; judged 14 days after treatment
# Method in brief: as §4
# [18] = system: cocklebur (Xanthium strumarium L.), Xs; experiment: as above; conditions: dosage 5 kg/ha; sprayed after emergence; judged 14 days after treatment
# Method in brief: as §4
# [19] = system: bulrush (Scirpus juncoides Roxb.); experiment: Test Example 2: herbicidal effect on paddy field weeds after emergence; conditions: Dosage 5 kg/ha; one-leaved stage; 21 days after treatment
# Method in brief: (§5)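 Weeds were sown in 1/10000 are pots of soil flooded to paddy conditions and grown to the one-leaf stage, then the soil was treated with a solution of compound at a predetermined dosage.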
# [20] = system: barnyard grass (Echinochloa crus-galli Beauv.); experiment: as above; conditions: Dosage 5 kg/ha; one-leaved stage; 21 days after treatment
# Method in brief: as §5
# [21] = system: monochoria (Monochoria vaginalis Presl); experiment: as above; conditions: Dosage 5 kg/ha; one-leaved stage; 21 days after treatment
# Method in brief: as §5
SMILES,Herbicidal effect Vp [1],Herbicidal effect Am [2],Herbicidal effect Ga [3],Herbicidal effect At [4],Herbicidal effect Ec [5],Herbicidal effect Xs [6],Phytotoxicity Wh [7],Phytotoxicity So [8],Phytotoxicity So [9],Phytotoxicity Wh [10],Pre-emergence treatment Bulrush (herbicidal effect) [11],Pre-emergence treatment Barnyard grass (herbicidal effect) [12],Herbicidal effect Vp [13],Herbicidal effect Am [14],Herbicidal effect Ga [15],Herbicidal effect At [16],Herbicidal effect Ec [17],Herbicidal effect Xs [18],Post-emergence treatment Bulrush (herbicidal effect) [19],Post-emergence treatment Barnyard grass (herbicidal effect) [20],other results
CCNC(=O)c1nc2ccc(O)cc2cc1C(=O)Nc1c(CC)ccc(Cl)c1CC [compound 275],4 (Weed-killing rate is 90-99%.),3 (Weed-killing rate is 70-89%.),3 (Weed-killing rate is 70-89%.),4 (Weed-killing rate is 90-99%.),4 (Weed-killing rate is 90-99%.),3 (Weed-killing rate is 70-89%.),1 (Crop-killing rate is 1-39%.),0 (Crop-killing rate is 0-20% (No Phytotoxicity).),1 (Crop-killing rate is 1-39%.),2 (Crop-killing rate is 40-69%.),5 (Weed-killing rate is 100%.),5 (Weed-killing rate is 100%.),4 (Weed-killing rate is 90-99%.),3 (Weed-killing rate is 70-89%.),3 (Weed-killing rate is 70-89%.),4 (Weed-killing rate is 90-99%.),4 (Weed-killing rate is 90-99%.),3 (Weed-killing rate is 70-89%.),4 (Weed-killing rate is 90-99%.),5 (Weed-killing rate is 100%.),Post-emergence treatment Monochoria (herbicidal effect) [21]: 5 (Weed-killing rate is 100%.)
CCc1ccc(Cl)c(CC)c1NC(=O)c1cc2cc(OC)c(OC)cc2nc1C(=O)NCC(C)C [compound 310],4 (Weed-killing rate is 90-99%.),4 (Weed-killing rate is 90-99%.),3 (Weed-killing rate is 70-89%.),4 (Weed-killing rate is 90-99%.),4 (Weed-killing rate is 90-99%.),3 (Weed-killing rate is 70-89%.),2 (Crop-killing rate is 40-69%.),0 (Crop-killing rate is 0-20% (No Phytotoxicity).),0 (Crop-killing rate is 0-20% (No Phytotoxicity).),2 (Crop-killing rate is 40-69%.),3 (Weed-killing rate is 70-89%.),4 (Weed-killing rate is 90-99%.),3 (Weed-killing rate is 70-89%.),3 (Weed-killing rate is 70-89%.),2 (Weed-killing rate is 40-69%.),4 (Weed-killing rate is 90-99%.),4 (Weed-killing rate is 90-99%.),3 (Weed-killing rate is 70-89%.),2 (Weed-killing rate is 40-69%.),3 (Weed-killing rate is 70-89%.),Post-emergence treatment Monochoria (herbicidal effect) [21]: 5 (Weed-killing rate is 100%.)
CCCNC(=O)c1nc2c(cc1C(=O)Nc1c(CC)ccc(Cl)c1CC)CSCC2 [compound 558],5 (Weed-killing rate is 100%.),5 (Weed-killing rate is 100%.),5 (Weed-killing rate is 100%.),5 (Weed-killing rate is 100%.),5 (Weed-killing rate is 100%.),5 (Weed-killing rate is 100%.),5 (Crop-killing rate is 100%.),5 (Crop-killing rate is 100%.),5 (Crop-killing rate is 100%.),5 (Crop-killing rate is 100%.),5 (Weed-killing rate is 100%.),5 (Weed-killing rate is 100%.),5 (Weed-killing rate is 100%.),5 (Weed-killing rate is 100%.),5 (Weed-killing rate is 100%.),5 (Weed-killing rate is 100%.),5 (Weed-killing rate is 100%.),5 (Weed-killing rate is 100%.),5 (Weed-killing rate is 100%.),5 (Weed-killing rate is 100%.),Post-emergence treatment Monochoria (herbicidal effect) [21]: 5 (Weed-killing rate is 100%.)
CCCNC(=O)c1nc2ccoc2cc1C(=O)Nc1c(CC)ccc(Cl)c1CC [compound 847],5 (Weed-killing rate is 100%.),5 (Weed-killing rate is 100%.),5 (Weed-killing rate is 100%.),5 (Weed-killing rate is 100%.),5 (Weed-killing rate is 100%.),5 (Weed-killing rate is 100%.),5 (Crop-killing rate is 100%.),4 (Crop-killing rate is 90-99%.),4 (Crop-killing rate is 90-99%.),5 (Crop-killing rate is 100%.),5 (Weed-killing rate is 100%.),5 (Weed-killing rate is 100%.),5 (Weed-killing rate is 100%.),5 (Weed-killing rate is 100%.),5 (Weed-killing rate is 100%.),5 (Weed-killing rate is 100%.),5 (Weed-killing rate is 100%.),5 (Weed-killing rate is 100%.),5 (Weed-killing rate is 100%.),5 (Weed-killing rate is 100%.),Post-emergence treatment Monochoria (herbicidal effect) [21]: 5 (Weed-killing rate is 100%.)

# Reference: US6444617B1, “Fused-heterocycle dicarboxylic acid diamide derivatives or salts thereof, herbicide and usage thereof” (Nihon Nohyaku Co., Ltd., priority 1998, dated 2002)
